According to paper PMC9502272, “A Metabolomics Approach for Predicting OATP1B-Type Transporter-Mediated Drug–Drug Interaction Liabilities” (Pharmaceutics, 2022):
Where a name gives a salt, the structure may show the parent alone.

Molecular target: T1, Oatp1b2 (Mus musculus, UniProt Q9JJL3)
T1 sequence (Q9JJL3 1-689): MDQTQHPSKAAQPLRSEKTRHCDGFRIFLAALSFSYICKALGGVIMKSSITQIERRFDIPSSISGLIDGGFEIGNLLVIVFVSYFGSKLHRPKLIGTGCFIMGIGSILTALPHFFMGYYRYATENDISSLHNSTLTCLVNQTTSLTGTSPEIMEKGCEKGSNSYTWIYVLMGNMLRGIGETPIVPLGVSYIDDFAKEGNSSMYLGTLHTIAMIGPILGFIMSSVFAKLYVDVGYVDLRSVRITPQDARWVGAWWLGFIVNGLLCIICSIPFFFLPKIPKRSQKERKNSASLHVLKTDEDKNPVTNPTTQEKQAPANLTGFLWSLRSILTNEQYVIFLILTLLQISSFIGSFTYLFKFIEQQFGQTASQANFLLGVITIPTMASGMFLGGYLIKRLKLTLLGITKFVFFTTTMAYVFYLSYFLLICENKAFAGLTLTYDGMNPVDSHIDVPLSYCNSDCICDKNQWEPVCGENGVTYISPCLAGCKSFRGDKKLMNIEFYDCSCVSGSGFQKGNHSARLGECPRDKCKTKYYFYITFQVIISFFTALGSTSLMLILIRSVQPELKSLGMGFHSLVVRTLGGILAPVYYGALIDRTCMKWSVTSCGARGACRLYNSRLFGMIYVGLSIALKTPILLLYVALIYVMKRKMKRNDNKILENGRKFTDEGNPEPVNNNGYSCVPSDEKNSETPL
Assay: Untargeted metabolomics of plasma from untreated wild-type and Oatp1b2(−/−) mice
Settings: for Fold of Change KO/WT: plasma of untreated Oatp1b2-deficient (KO) vs wild-type (WT) mice, semi-quantitative, positive = higher in KO, n = 6 per group; for Mean value KO: plasma of untreated Oatp1b2-deficient mice; for Mean value KO / Mean value WT: raw area counts rescaled to median = 1; for Mean value WT: plasma of untreated wild-type mice
Protocol: For all experiments, age- and sex-matched mice (8–12 weeks old) were used. […] Mice with a deficiency of Oatp1b2 (Oatp1b2(−/−) mice), the single murine orthologue of OATP1B1 and OATP1B3 in humans, on a DBA/1LacJ background were kindly provided by Drs. Richard B. Kim (Western University, London, Ontario, Canada) and Jeffrey L. Stock (Pfizer, Groton, CT, USA).
Plasma samples from untreated wild-type mice and Oatp1b2(−/−) mice were analyzed for structurally named and unknown molecules using a non-targeted semi-quantitative liquid chromatography-tandem mass spectrometry (LC-MS/MS) and gas chromatography-mass spectrometry platforms (Metabolon, Durham, NC, USA). Compounds were identified by comparison with library entries of purified standards or recurrent unknown entities.

Compound | Fold of Change KO/WT | Mean value KO | Mean value WT
CCCCCCCCCCCCCCCCCC(N)=O [stearamide (18:0)] | 1.49 | 1.19 | .800
CCCCC/C=C\C/C=C\CCCCCCCC(=O)OC[C@@H](O)COP(=O)(O)OCCN [1-linoleoyl-GPE (18:2)] | 1.94 | 1.42 | .736
Cc1ccc(O[C@@H]2O[C@H](C(=O)O)[C@@H](O)[C@H](O)[C@H]2O)cc1 [p-cresol glucuronide] | 11.8 | 5.92 | .503
C[C@H](CCC(=O)O)[C@H]1CC[C@H]2[C@@H]3[C@H](O)[C@@H](O)[C@@H]4C[C@H](O)CC[C@]4(C)[C@H]3CC[C@]12C [alpha-muricholate] | 45.2 | 2.71 | .0600
C[C@H](CCC(=O)O)[C@H]1CC[C@H]2[C@@H]3C(=O)C[C@@H]4C[C@H](O)CC[C@]4(C)[C@H]3C[C@H](O)[C@]12C [7-ketodeoxycholate] | 6.23 | 2.26 | .362
hexadecenedioate (C16:1-DC) | 3.61 | 1.62 | .448
CCCCCCCCCCCCCCCCCC(=O)OC[C@@H](O)COP(=O)(O)OCC(O)CO (stereo partly drawn) [1-stearoyl-GPG (18:0)] | 4.16 | 1.76 | .423
CCCCCCCC/C=C\CCCCCCCC(=O)OC[C@@H](O)COP(=O)(O)OC1[C@H](O)[C@H](O)C(O)[C@H](O)[C@H]1O (stereo partly drawn) [1-oleoyl-GPI (18:1)] | 1.87 | 1.36 | .729
C[N+](C)(C)CCCCC(=O)[O-] [N,N,N-trimethyl-5-aminovalerate] | 3.45 | 2.06 | .597
CCCCCCCC/C=C\CCCCCCCC(=O)O[C@H](COC(=O)CCCCCCCCCCCCCCC)COP(=O)([O-])OCC[N+](C)(C)C [1-palmitoyl-2-oleoyl-GPC (16:0/18:1)] | 1.30 | 1.08 | .834
heptadecenamide (17:1) | 1.37 | 1.29 | .939
CC/C=C\C/C=C\C/C=C\CCCCCCCC(=O)O[C@H](COC(=O)CCCCCCC/C=C\CCCCCC)COP(=O)([O-])OCC[N+](C)(C)C [1-palmitoleoyl-2-linolenoyl-GPC (16:1/18:3)] | 1.86 | 1.46 | .784
CCCCC/C=C\C/C=C\C/C=C\C/C=C\CCCC(=O)O[C@H](CC(=O)[O-])C[N+](C)(C)C [arachidonoylcarnitine (C20:4)] | 1.92 | 1.53 | .796
octadecenedioylcarnitine (C18:1-DC) | 12.7 | 2.35 | .185
C[C@H](CCC(=O)O)[C@H]1CC[C@H]2[C@@H]3[C@H](O)C[C@@H]4C[C@H](O)CC[C@]4(C)[C@H]3CC[C@]12C [chenodeoxycholate] | 3.57 | 2.09 | .585
CCCCCC(=O)NCC(=O)O [hexanoylglycine] | 1.59 | 1.40 | .880
CC(=O)N[C@@H](CCCCNC(N)=O)C(=O)O [N-acetylhomocitrulline] | 1.35 | 1.17 | .861
O=C(O)CCCCCCCCCCCCC(=O)O [tetradecanedioate (C14-DC)] | 4.27 | 1.96 | .459
O=C(O)[C@H]1O[C@@H](Oc2ccccc2)[C@H](O)[C@@H](O)[C@@H]1O [phenol glucuronide] | 1.87 | 1.28 | .684
linolenoylcarnitine (C18:3) | 1.91 | 1.51 | .794
Cc1ccc(OS(=O)(=O)O)c(N)c1 [2-amino-p-cresol sulfate] | 4.28 | 1.86 | .435
C[C@H](CCC(=O)O)[C@H]1CC[C@H]2[C@@H]3[C@@H](O)[C@@H](O)[C@@H]4C[C@H](O)CC[C@]4(C)[C@H]3CC[C@]12C [beta-muricholate] | 15.2 | 2.84 | .187

Compound | Fold of Change KO/WT | Mean value KO | Mean value WT
O=C(O)Cc1cn(C2O[C@H](CO)[C@@H](O)[C@H]2O)cn1 (stereo partly drawn) [1-ribosyl-imidazoleacetate] | 1.64 | 1.34 | .818
O=C(O)CNC(=O)/C=C/c1ccccc1 [cinnamoylglycine] | 1.99 | 1.54 | .776
CCCCCCCCCCCCCC/C=C\OC[C@@H](O)COP(=O)(O)OCCN [1-(1-enyl-palmitoyl)-GPE (P-16:0)] | 1.79 | 1.30 | .725
CCCCCC/C=C\CCCC(=O)OC(CC(=O)[O-])C[N+](C)(C)C (stereo not drawn) [5-dodecenoylcarnitine (C12:1)] | 1.46 | 1.37 | .936
CCCCC/C=C\C/C=C\CCCCCCCC(N)=O [linoleamide (18:2n6)] | 1.36 | 1.29 | .945
CCCCCCCC/C=C\CCCCCCCC(=O)O[C@H](COC(=O)CCCCCCCCCCCCCCCCC)COP(=O)([O-])OCC[N+](C)(C)C [1-stearoyl-2-oleoyl-GPC (18:0/18:1)] | 1.20 | 1.07 | .892
CCCCCCCCCCCCCCCC/C=C\OC[C@@H](O)COP(=O)(O)OCCN [1-(1-enyl-stearoyl)-GPE (P-18:0)] | 1.72 | 1.28 | .747
O=C(O)CCCCCCCCCCC(=O)O [dodecanedioate (C12-DC)] | 8.12 | 2.97 | .366
NCCOP(=O)(O)OCC(O)CO (stereo not drawn) [glycerophosphoethanolamine] | 1.57 | 1.31 | .831
tetradecadienedioate (C14:2-DC) | 2.09 | 1.58 | .756
CCCCC/C=C\C/C=C\C/C=C\C/C=C\CCCC(=O)OC[C@@H](O)COP(=O)(O)OC1C(O)C(O)C(O)C(O)C1O (stereo partly drawn) [1-arachidonoyl-GPI (20:4)] | 1.48 | 1.11 | .754
CSC=CC(O)C(O)C(=O)O (stereo not drawn) [2,3-dihydroxy-5-methylthio-4-pentenoate (DMTPA)] | 1.34 | 1.23 | .915
C/C=C(\C)C(=O)NCC(=O)O [tigloylglycine] | 1.38 | 1.22 | .883
eicosenedioate (C20:1-DC) | 5.36 | 1.80 | .335
C[N+]1(C)CCCC[C@H]1C(=O)[O-] [homostachydrine] | 1.19 | 1.09 | .915
CCCCCCCCCCCCCCCC(=O)OC[C@H](COP(=O)([O-])OCC[N+](C)(C)C)OC(=O)CCCCCCCCCCCCCCC [1,2-dipalmitoyl-GPC (16:0/16:0)] | 1.31 | 1.18 | .901
CCCCCCCCCCCCCCCCC(N)=O [margaramide (17:0)] | 1.45 | 1.19 | .826
CCCCCCCCCCCCCCCCC(=O)OC(CC(=O)[O-])C[N+](C)(C)C (stereo not drawn) [margaroylcarnitine (C17)] | 1.59 | 1.21 | .764
C[C@H](CCC(=O)O)[C@H]1CC[C@H]2[C@@H]3CC[C@@H]4C[C@H](O)CC[C@]4(C)[C@H]3C[C@H](OS(=O)(=O)O)[C@]12C [deoxycholic acid 12-sulfate] | 1.25 | 1.06 | .851
dihomo-linolenoylcarnitine (C20:3n3 or 6) | 1.72 | 1.37 | .795
dodecenedioate (C12:1-DC) | 3.94 | 2.14 | .543
CCCCCCCC/C=C\CCCCCCCC(=O)O[C@H](COC(=O)CCCCCCCCCCCCCCC)COP(=O)(O)OCCN [1-palmitoyl-2-oleoyl-GPE (16:0/18:1)] | 1.46 | 1.24 | .847
